Laboratory results taken from patent publication US20260130847A1, “INGESTIBLE IN VIVO-ASSEMBLING DRUG RELEASE FORMULATIONS AND METHODS” (Massachusetts Institute of Technology, priority 2022, published 2026).
One block for each compound: values may come before it.

What was measured:
[1] = Encapsulated lumefantrine pharmacokinetics; type: in vivo; conditions: pigs, 960 mg lumefantrine
Method: All animal studies were performed only after MIT CAC review and approval and under veterinarian supervision. Pigs were dosed with the following treatments via endoscopy: free lumefantrine, lumefantrine encapsulated in alginate hydrogels, and lumefantrine encapsulated in LIFT hydrogels (n=3 each). All pigs were dosed with a total of 960 mg lumefantrine. For free lumefantrine, drug powder was weighed and placed across three gelatin capsules. For hydrogel formulations, lumefantrine powder was suspended in polymer solution (0.5% w/v alginate or 0.5% w/v alginate/5% 4-arm PEG-maleimide), mixed, and administered after crosslinker solution (200 mM CaCl2/10 mM DMSA). Blood was sampled via an installed ear catheter at the indicated time points, and lumefantrine area under the curve was calculated by the trapezoidal rule.
Plasma lumefantrine and desbutyl lumefantrine were separated via high pressure liquid chromatography (HPLC) and quantified with an Agilent 6495A electrospray ionization (ESI) triple quadrupole mass spectrometer (Agilent Technologies, Santa Clara, CA). Samples were introduced to the system with a 5 μL injection volume. Chromatography was performed on an Acquity BEH C18 column (2.1×50 mm, dP 1.8 μm, Waters, Milford, MA), heated to 50° C., with a binary mobile phase composed of 0.1% formic acid in water (v/v, A) and 5% tetrahydrofuran in methanol (v/v, B). […] Nozzle voltage was set to 1500 V and capillary voltage was set to 3500 V. Dynamic multiple reaction-monitoring was used to quantify analytes. Lumefantrine was monitored at transitions 528.16 to 510.00 m/z at 28 collision energy (CE), with a qualifier transition from 528.16 to 383.00 m/z (40 CE). Desbutyl lumefantrine was monitored at 472.1 to 454.1 m/z (20 CE) and qualified from 472.1 to 346 m/z (36 CE). Halofantrine was used as an internal standard and quantified with the 500.18 to 142.10 m/z transition (24 CE) and qualified with the 500.18 to 100.10 m/z transition. […]

cellulase = experiment: Cellulase activity after acid exposure in vitro; type: biochemical; conditions: short incubations in gastric acid
lactase = molecular target: T1, lactase (Aspergillus oryzae, UniProt Q2UCU3); experiment: Lactase activity after dithiol molecule treatment (ONPG); type: biochemical; conditions: 2.5, 5, or 10 mM, 37° C., 20 min
T1 construct: purchased MilliporeSigma G5160
T1 sequence (Q2UCU3 19-1005): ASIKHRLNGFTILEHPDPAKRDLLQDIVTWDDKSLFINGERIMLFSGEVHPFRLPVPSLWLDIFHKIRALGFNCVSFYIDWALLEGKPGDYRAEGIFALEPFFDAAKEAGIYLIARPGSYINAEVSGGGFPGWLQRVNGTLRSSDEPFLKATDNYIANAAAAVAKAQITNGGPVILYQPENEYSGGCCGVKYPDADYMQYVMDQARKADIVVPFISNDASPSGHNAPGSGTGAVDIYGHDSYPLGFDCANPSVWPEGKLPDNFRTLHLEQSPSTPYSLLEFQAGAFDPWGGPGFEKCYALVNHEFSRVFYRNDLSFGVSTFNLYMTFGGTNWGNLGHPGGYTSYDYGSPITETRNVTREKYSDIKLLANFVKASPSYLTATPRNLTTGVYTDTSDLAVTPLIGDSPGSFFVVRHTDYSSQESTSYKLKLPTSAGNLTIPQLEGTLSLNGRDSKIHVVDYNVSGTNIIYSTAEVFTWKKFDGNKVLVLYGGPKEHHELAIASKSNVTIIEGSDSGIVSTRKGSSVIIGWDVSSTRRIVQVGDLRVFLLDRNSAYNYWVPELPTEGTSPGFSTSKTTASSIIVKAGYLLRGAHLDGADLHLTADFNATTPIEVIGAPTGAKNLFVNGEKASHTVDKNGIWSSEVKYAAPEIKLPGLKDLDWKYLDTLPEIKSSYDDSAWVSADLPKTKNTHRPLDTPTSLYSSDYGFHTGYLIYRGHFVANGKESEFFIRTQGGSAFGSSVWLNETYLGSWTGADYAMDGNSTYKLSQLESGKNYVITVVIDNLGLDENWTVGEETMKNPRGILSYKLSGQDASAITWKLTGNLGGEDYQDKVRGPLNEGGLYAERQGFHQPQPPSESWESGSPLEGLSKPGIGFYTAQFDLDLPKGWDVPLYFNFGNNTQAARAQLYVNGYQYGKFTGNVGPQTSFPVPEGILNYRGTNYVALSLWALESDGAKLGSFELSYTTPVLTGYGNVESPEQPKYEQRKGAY
Method: Lactase (18 μg, 60 μL) was added to DMSA or PEG-dithiol to a final DMSA/PEG-dithiol concentration of 2.5, 5, or 10 mM. Treatments were incubated at 37° C. for 20 min. Lactase activity was assayed by adding 60 μL of 5 mM ONPG and incubation for 1 min at room temperature. After, 300 μL of 1 M Na2CO3 was added to stop the reaction, and the absorbance of the solution was read at λ=420 nm.

- AUC ([1]; pig, other: via endoscopy, plasma, n=3, trapezoidal rule, read-out: area under the curve (AUC) of released drug): 14900 ng·h/mL
- Cmax ([1]; pig, other: via endoscopy, plasma, n=3, read-out: maximum observed drug concentration (Cmax)): 901 ± 197 ng/mL
- time of peak plasma drug concentration post-administration ([1]; n=3): 5 to 7 h
Compound: CCCCN(CCCC)CC(O)c1cc(Cl)cc2c1-c1ccc(Cl)cc1/C2=C/c1ccc(Cl)cc1 (centres unmarked) [free lumefantrine, Lumefantrine]

Compound: cellulase
- activity of free cellulase (cellulase): significantly degraded enzyme activity

Compound: O=C(O)C(S)C(S)C(=O)O (centres unmarked) [DMSA, dimercaptosuccinic acid]
- lactase activity after exposure to dithiol compound (lactase): attenuated lactase activity
